Measured values as given in US20200332133A1, “SOLVENT AND METHOD OF FORMING ORGANIC FILM USING SOLVENT” (FLOSFIA INC., priority 2017, published 2020).
≈ marks a conversion by molar mass, not a printed value.

Experiment: Solubility of the organic compound in nonpolar / polar solvent (added to 1.0 mL solvent to saturation point)
Assay type: physicochemical
Text: The raw material(s) is not particularly limited as long as the raw material(s) contains the organic compound, and the raw materials may contain the organic compound and an additive. The additive is not particularly limited as long as an object of a present inventive subject matter is not interfered with, and may be a known additive. The mixing ratio of the additive in the raw materials is not particularly limited, however, preferably in a range of 0.00001 mol % to 30 mol %, and further preferably in a range of 0.0001 mol % to 10 mol %. […] According to a present inventive subject matter, the organic compound is added into the polar solvent that is 1.0 mL to saturation point, and the remaining organic compound in the polar solvent was measured by deducting the remaining amount of organic compound in the polar solvent from the total amount of added organic compound in the polar solvent. […] According to a present inventive subject matter, the organic compound is added into the nonpolar solvent that is 1.0 mL to saturation point, and the remaining organic compound in the nonpolar solvent was measured by deducting the remaining amount of organic compound in the nonpolar solvent from the total amount of added organic compound in the nonpolar solvent. […]

dissolution into the solvent (Comparative Example 4, only 2-Pyrrolidone used as the solvent of the raw-material solution): hardly dissolved
solubility to mesitylene (nonpolar solvent mesitylene, temperature of 25° C.): 1500 µg/mL (≈ 2080 µM)
Structure (SMILES): c12c3c4c5c1c1c6c7c2c2c8c3c3c9c4c4c%10c5c5c1c1c6c6c%11c7c2c2c7c8c3c3c8c9c4c4c9c%10c5c5c1c1c6c6c%11c2c2c7c3c3c8c4c4c9c5c1c1c6c2c3c41 [C60 fullerene]
